Measured values from the NIST ThermoML archive (doi:10.1016/j.jct.2011.09.027).
Numbers after ± are expanded uncertainties.

Details: Liquid; for viscosity: Concentric cylinders viscometry; for mass density: Vibrating tube method

CCOS(=O)(=O)[O-].CCn1cc[n+](C)c1 [1-ethyl-3-methylimidazolium ethyl sulfate]
Details | mass density [kg/m3] | viscosity [mPa·s]
278.15 K, 101.33 kPa | – | 309.1 ± 9.8
283.12 K, 19658 kPa | 1255.37 ± 1.6 | –
283.13 K, 29946 kPa | 1259.21 ± 1.7 | –
283.14 K, 98469 kPa | 1282.72 ± 2.5 | –
283.15 K, 101.33 kPa | 1247.88 ± 1.4 | 225.2 ± 6.6
283.15 K, 40036 kPa | 1262.89 ± 1.8 | –
283.15 K, 49963 kPa | 1266.44 ± 1.9 | –
283.15 K, 59714 kPa | 1269.86 ± 2.1 | –
283.15 K, 69986 kPa | 1273.38 ± 2.2 | –
283.15 K, 79625 kPa | 1276.61 ± 2.3 | –
283.15 K, 89964 kPa | 1280 ± 2.4 | –
283.15 K, 109866 kPa | 1286.29 ± 2.7 | –
283.15 K, 120746 kPa | 1289.61 ± 2.8 | –
283.15 K, 129872 kPa | 1292.32 ± 3 | –
283.15 K, 139485 kPa | 1295.11 ± 3.1 | –
283.16 K, 1391 kPa | 1248.37 ± 1.4 | –
283.18 K, 9875 kPa | 1251.65 ± 1.5 | –
283.19 K, 5138 kPa | 1249.82 ± 1.4 | –
293.13 K, 39626 kPa | 1256.03 ± 1.8 | –
293.14 K, 1092 kPa | 1241.38 ± 1.4 | –
293.14 K, 3910 kPa | 1242.48 ± 1.4 | –
293.14 K, 9925 kPa | 1244.83 ± 1.5 | –
293.14 K, 19948 kPa | 1248.68 ± 1.6 | –
293.14 K, 29954 kPa | 1252.45 ± 1.7 | –
293.14 K, 123824 kPa | 1284.35 ± 2.8 | –
293.14 K, 129866 kPa | 1286.19 ± 2.9 | –
293.14 K, 140209 kPa | 1289.28 ± 3.1 | –
293.15 K, 101.33 kPa | 1241.01 ± 1.4 | 123.5 ± 3.1
293.15 K, 49964 kPa | 1259.78 ± 1.9 | –
293.15 K, 89997 kPa | 1273.58 ± 2.4 | –
293.15 K, 99862 kPa | 1276.81 ± 2.5 | –
293.15 K, 109863 kPa | 1280.01 ± 2.6 | –
293.16 K, 80177 kPa | 1270.3 ± 2.3 | –
293.17 K, 69997 kPa | 1266.83 ± 2.1 | –
293.18 K, 60017 kPa | 1263.35 ± 2 | –
298.13 K, 19821 kPa | 1245.34 ± 1.6 | –
298.13 K, 29997 kPa | 1249.26 ± 1.7 | –
298.13 K, 39886 kPa | 1252.98 ± 1.8 | –
298.15 K, 49994 kPa | 1256.71 ± 1.9 | –
298.15 K, 58874 kPa | 1259.91 ± 2 | –
298.15 K, 69996 kPa | 1263.83 ± 2.1 | –
298.16 K, 101.33 kPa | 1237.53 ± 1.4 | 97.2 ± 2.3
298.16 K, 10471 kPa | 1241.67 ± 1.5 | –
298.16 K, 79619 kPa | 1267.14 ± 2.2 | –
298.16 K, 89998 kPa | 1270.63 ± 2.4 | –
298.16 K, 99253 kPa | 1273.66 ± 2.5 | –
298.16 K, 109867 kPa | 1277.06 ± 2.6 | –
298.16 K, 120082 kPa | 1280.24 ± 2.8 | –
298.16 K, 129865 kPa | 1283.2 ± 2.9 | –
298.16 K, 139020 kPa | 1285.9 ± 3 | –
298.17 K, 5192 kPa | 1239.56 ± 1.4 | –
298.19 K, 981 kPa | 1237.87 ± 1.4 | –
303.15 K, 101.33 kPa | – | 77.1 ± 1.8
313.1 K, 944 kPa | 1227.8 ± 1.3 | –
313.14 K, 4705 kPa | 1229.35 ± 1.4 | –
313.14 K, 39636 kPa | 1243.24 ± 1.8 | –
313.14 K, 49994 kPa | 1247.16 ± 1.9 | –
313.14 K, 60122 kPa | 1250.92 ± 2 | –
313.15 K, 101.33 kPa | 1227.47 ± 1.3 | 50.9 ± 1.1
313.15 K, 19818 kPa | 1235.48 ± 1.5 | –
313.15 K, 30003 kPa | 1239.51 ± 1.6 | –
313.15 K, 69996 kPa | 1254.49 ± 2.1 | –
313.15 K, 109873 kPa | 1268.13 ± 2.6 | –
313.15 K, 120354 kPa | 1271.49 ± 2.7 | –
313.15 K, 129874 kPa | 1274.47 ± 2.8 | –
313.16 K, 9378 kPa | 1231.27 ± 1.4 | –
313.16 K, 79657 kPa | 1257.92 ± 2.2 | –
313.16 K, 89993 kPa | 1261.49 ± 2.3 | –
313.16 K, 99450 kPa | 1264.69 ± 2.4 | –
313.16 K, 138377 kPa | 1277.07 ± 2.9 | –
323.15 K, 101.33 kPa | – | 35.1 ± 0.8
333.12 K, 19852 kPa | 1222.8 ± 1.5 | –
333.12 K, 79184 kPa | 1246.16 ± 2.1 | –
333.13 K, 9972 kPa | 1218.57 ± 1.4 | –
333.13 K, 89997 kPa | 1250.05 ± 2.3 | –
333.13 K, 97104 kPa | 1252.54 ± 2.3 | –
333.15 K, 101.33 kPa | 1214.27 ± 1.3 | 25.2 ± 0.6
333.15 K, 4956 kPa | 1216.39 ± 1.4 | –
333.15 K, 29992 kPa | 1227.03 ± 1.6 | –
333.15 K, 69997 kPa | 1242.77 ± 2 | –
333.15 K, 109862 kPa | 1256.89 ± 2.5 | –
333.15 K, 121234 kPa | 1260.63 ± 2.6 | –
333.16 K, 49995 kPa | 1235.1 ± 1.8 | –
333.16 K, 60002 kPa | 1238.99 ± 1.9 | –
333.16 K, 129872 kPa | 1263.39 ± 2.8 | –
333.17 K, 1680 kPa | 1214.95 ± 1.3 | –
333.17 K, 40144 kPa | 1231.18 ± 1.7 | –
333.18 K, 139672 kPa | 1266.43 ± 2.9 | –
343.15 K, 101.33 kPa | – | 18.7 ± 0.4
353.13 K, 19599 kPa | 1209.45 ± 1.4 | –
353.13 K, 29993 kPa | 1214.03 ± 1.6 | –
353.13 K, 39918 kPa | 1218.29 ± 1.6 | –
353.13 K, 79974 kPa | 1234.36 ± 2.1 | –
353.13 K, 119073 kPa | 1248.32 ± 2.5 | –
353.14 K, 89917 kPa | 1238.07 ± 2.2 | –
353.14 K, 99462 kPa | 1241.53 ± 2.3 | –
353.14 K, 109824 kPa | 1245.17 ± 2.4 | –
353.14 K, 129849 kPa | 1251.87 ± 2.7 | –
353.14 K, 139892 kPa | 1255.06 ± 2.8 | –
353.15 K, 101.33 kPa | 1200.53 ± 1.3 | 14.6 ± 0.3
353.15 K, 49925 kPa | 1222.47 ± 1.8 | –
353.15 K, 69993 kPa | 1230.52 ± 2 | –
353.18 K, 59605 kPa | 1226.41 ± 1.9 | –
353.19 K, 1193 kPa | 1201.04 ± 1.3 | –
353.19 K, 4987 kPa | 1202.81 ± 1.3 | –
353.19 K, 10093 kPa | 1205.15 ± 1.4 | –
363.15 K, 101.33 kPa | 1194.25 ± 1.3 | 11.9 ± 0.3
373.11 K, 118179 kPa | 1236.88 ± 2.4 | –
373.12 K, 19814 kPa | 1197.22 ± 1.4 | –
373.13 K, 10765 kPa | 1192.98 ± 1.3 | –
373.13 K, 29997 kPa | 1201.88 ± 1.5 | –
373.13 K, 39971 kPa | 1206.31 ± 1.6 | –
373.13 K, 98959 kPa | 1230.06 ± 2.2 | –
373.13 K, 109856 kPa | 1233.98 ± 2.4 | –
373.13 K, 129856 kPa | 1240.8 ± 2.6 | –
373.14 K, 49993 kPa | 1210.64 ± 1.7 | –
373.15 K, 101.33 kPa | – | 9.7 ± 0.2
373.15 K, 59698 kPa | 1214.72 ± 1.8 | –
373.15 K, 90001 kPa | 1226.72 ± 2.1 | –
373.15 K, 140000 kPa | 1244.08 ± 2.7 | –
373.16 K, 69987 kPa | 1218.92 ± 1.9 | –
373.17 K, 1377 kPa | 1188.48 ± 1.2 | –
373.17 K, 5226 kPa | 1190.34 ± 1.3 | –
373.17 K, 79962 kPa | 1222.87 ± 2 | –
393.12 K, 910 kPa | 1175.14 ± 1.2 | –
393.12 K, 59389 kPa | 1202.77 ± 1.8 | –
393.12 K, 69993 kPa | 1207.25 ± 1.9 | –
393.12 K, 79111 kPa | 1210.99 ± 1.9 | –
393.13 K, 5153 kPa | 1177.31 ± 1.2 | –
393.13 K, 89994 kPa | 1215.29 ± 2.1 | –
393.14 K, 99376 kPa | 1218.86 ± 2.2 | –
393.15 K, 49959 kPa | 1198.64 ± 1.6 | –
393.15 K, 109877 kPa | 1222.71 ± 2.3 | –
393.15 K, 119972 kPa | 1226.26 ± 2.4 | –
393.15 K, 129874 kPa | 1229.6 ± 2.5 | –
393.15 K, 139106 kPa | 1232.59 ± 2.6 | –
393.16 K, 10368 kPa | 1179.94 ± 1.3 | –
393.16 K, 20408 kPa | 1184.89 ± 1.4 | –
393.16 K, 29995 kPa | 1189.49 ± 1.5 | –
393.16 K, 39725 kPa | 1194.02 ± 1.6 | –
413.12 K, 9823 kPa | 1167.05 ± 1.3 | –
413.12 K, 98120 kPa | 1207.66 ± 2.1 | –
413.13 K, 19924 kPa | 1172.37 ± 1.3 | –
413.13 K, 109866 kPa | 1212.06 ± 2.2 | –
413.13 K, 120361 kPa | 1215.8 ± 2.3 | –
413.15 K, 5311 kPa | 1164.62 ± 1.2 | –
413.15 K, 29993 kPa | 1177.5 ± 1.4 | –
413.15 K, 89994 kPa | 1204.48 ± 2 | –
413.15 K, 129864 kPa | 1219.02 ± 2.4 | –
413.17 K, 1563 kPa | 1162.57 ± 1.2 | –
413.17 K, 39896 kPa | 1182.37 ± 1.5 | –
413.17 K, 49998 kPa | 1187.17 ± 1.6 | –
413.17 K, 59469 kPa | 1191.52 ± 1.7 | –
413.17 K, 69996 kPa | 1196.16 ± 1.8 | –
413.17 K, 139292 kPa | 1222.06 ± 2.5 | –
413.18 K, 79893 kPa | 1200.36 ± 1.9 | –
